From ChEMBL document CHEMBL1268828, “Synthesis of novel pyrrole and pyrrolo[2,3-d]pyrimidine derivatives bearing sulfonamide moiety for evaluation as anticancer and radiosensitizing agents” (Bioorg Med Chem Lett, 2010)

What was measured:
HepG2 [1] = experiment: Cytotoxicity against human HepG2 cells assessed as inhibition of cell proliferation after 24 hrs by SRB assay; format: functional, cell-based; conditions: HepG2, 24 h
HepG2 [2] = experiment: Anticancer activity against human HepG2 cells assessed as viable cells after 48 hrs at 5 uM by SRB assay relative to control; format: functional; conditions: HepG2, 48 h, read-out: Activity
MCF7 [3] = experiment: Cytotoxicity against human MCF7 cells assessed as inhibition of cell proliferation after 24 hrs by SRB assay; format: functional, cell-based; conditions: MCF7, 24 h
HepG2 [4] = experiment: Anticancer activity against 4 Gy gamma-irradiated human HepG2 cells assessed as viable cells after 48 hrs at 12.5 uM by SRB assay (reference value: 21.2%); format: functional; conditions: HepG2, light or radiation study, read-out: Activity
HepG2 [5] = experiment: Anticancer activity against 4 Gy gamma-irradiated human HepG2 cells assessed as viable cells after 48 hrs at 5 uM by SRB assay (reference value: 21.2%); format: functional; conditions: HepG2, light or radiation study, read-out: Activity
HepG2 [6] = experiment: Anticancer activity against human HepG2 cells assessed as viable cells after 48 hrs at 40 uM by SRB assay relative to control; format: functional; conditions: HepG2, 48 h, read-out: Activity
HepG2 [7] = experiment: Anticancer activity against 4 Gy gamma-irradiated human HepG2 cells assessed as viable cells after 48 hrs at 25 uM by SRB assay (reference value: 21.2%); format: functional; conditions: HepG2, light or radiation study, read-out: Activity
HepG2 [8] = experiment: Anticancer activity against human HepG2 cells assessed as viable cells after 48 hrs at 12.5 uM by SRB assay relative to control; format: functional; conditions: HepG2, 48 h, read-out: Activity
HepG2 [9] = experiment: Anticancer activity against human HepG2 cells assessed as viable cells after 48 hrs at 25 uM by SRB assay relative to control; format: functional; conditions: HepG2, 48 h, read-out: Activity
HepG2 [10] = experiment: Anticancer activity against 4 Gy gamma-irradiated human HepG2 cells assessed as viable cells after 48 hrs at 40 uM by SRB assay (reference value: 21.2%); format: functional; conditions: HepG2, light or radiation study, read-out: Activity
MCF7 [11] = experiment: Anticancer activity against 4 Gy gamma-irradiated human MCF7 cells assessed as viable cells after 48 hrs at 5 uM by SRB assay (reference value: 7.3%); format: functional; conditions: MCF7, light or radiation study, read-out: Activity
MCF7 [12] = experiment: Anticancer activity against 4 Gy gamma-irradiated human MCF7 cells assessed as viable cells after 48 hrs at 40 uM by SRB assay (reference value: 7.3%); format: functional; conditions: MCF7, light or radiation study, read-out: Activity
MCF7 [13] = experiment: Anticancer activity against human MCF7 cells assessed as viable cells after 48 hrs at 40 uM by SRB assay relative to control; format: functional; conditions: MCF7, 48 h, read-out: Activity
MCF7 [14] = experiment: Anticancer activity against 4 Gy gamma-irradiated human MCF7 cells assessed as viable cells after 48 hrs at 25 uM by SRB assay (reference value: 7.3%); format: functional; conditions: MCF7, light or radiation study, read-out: Activity
MCF7 [15] = experiment: Anticancer activity against human MCF7 cells assessed as viable cells after 48 hrs at 5 uM by SRB assay relative to control; format: functional; conditions: MCF7, 48 h, read-out: Activity
MCF7 [16] = experiment: Anticancer activity against 4 Gy gamma-irradiated human MCF7 cells assessed as viable cells after 48 hrs at 12.5 uM by SRB assay (reference value: 7.3%); format: functional; conditions: MCF7, light or radiation study, read-out: Activity
MCF7 [17] = experiment: Anticancer activity against human MCF7 cells assessed as viable cells after 48 hrs at 12.5 uM by SRB assay relative to control; format: functional; conditions: MCF7, 48 h, read-out: Activity
MCF7 [18] = experiment: Anticancer activity against human MCF7 cells assessed as viable cells after 48 hrs at 25 uM by SRB assay relative to control; format: functional; conditions: MCF7, 48 h, read-out: Activity
HepG2 [19] = experiment: Anticancer activity against 4 Gy gamma-irradiated human HepG2 cells assessed as viable cells after 48 hrs at 5 uM by SRB assay (reference value: 18.73%); format: functional; conditions: HepG2, light or radiation study, read-out: Activity
HepG2 [20] = experiment: Anticancer activity against 4 Gy gamma-irradiated human HepG2 cells assessed as viable cells after 48 hrs at 40 uM by SRB assay (reference value: 18.73%); format: functional; conditions: HepG2, light or radiation study, read-out: Activity
HepG2 [21] = experiment: Anticancer activity against 4 Gy gamma-irradiated human HepG2 cells assessed as viable cells after 48 hrs at 12.5 uM by SRB assay (reference value: 18.73%); format: functional; conditions: HepG2, light or radiation study, read-out: Activity
HepG2 [22] = experiment: Anticancer activity against 4 Gy gamma-irradiated human HepG2 cells assessed as viable cells after 48 hrs at 25 uM by SRB assay (reference value: 18.73%); format: functional; conditions: HepG2, light or radiation study, read-out: Activity

## Nc1nc(=O)[nH]c2c1c(-c1ccccc1)cn2-c1ccc(S(=O)(=O)Nc2nccs2)cc1
HepG2 [1]
  IC50: 3.49 µM
HepG2 [2]
  viability at 5 µM: 22.3%
MCF7 [3]
  IC50: 8.32 µM
HepG2 [4]
  viability at 12.5 µM: 69.2%
HepG2 [5]
  viability at 5 µM: 61.7%
HepG2 [6]
  viability at 40 µM: 63.6%
HepG2 [7]
  viability at 25 µM: 78.3%
HepG2 [8]
  viability at 12.5 µM: 47.7%
HepG2 [9]
  viability at 25 µM: 63.9%
HepG2 [10]
  viability at 40 µM: 81.7%

## Cc1nc2c(c(-c3ccccc3)cn2-c2ccc(S(=O)(=O)Nc3ccccn3)cc2)c(=O)[nH]1
HepG2 [1]
  IC50: 3.15 µM
MCF7 [3]
  IC50: 5.1 µM

## Nc1nc(=O)[nH]c2c1c(-c1ccccc1)cn2-c1ccc(S(=O)(=O)Nc2ccccn2)cc1
HepG2 [1]
  IC50: 4.3 µM
MCF7 [3]
  IC50: 3.9 µM

## Nc1nc(=S)[nH]c2c1c(-c1ccccc1)cn2-c1ccc(S(=O)(=O)Nc2nccs2)cc1
HepG2 [1]
  IC50: 4.12 µM
MCF7 [3]
  IC50: 3.12 µM

## Nc1nc(=S)[nH]c2c1c(-c1ccccc1)cn2-c1ccc(S(=O)(=O)Nc2ccccn2)cc1
HepG2 [1]
  IC50: 4.1 µM
MCF7 [3]
  IC50: 3.8 µM

## O=C(CNc1ccc(S(=O)(=O)Nc2nccs2)cc1)c1ccccc1
HepG2 [1]
  IC50: 6.78 µM
MCF7 [3]
  IC50: 8.89 µM

## O=C(CNc1ccc(S(=O)(=O)Nc2ccccn2)cc1)c1ccccc1
HepG2 [1]
  IC50: 6.75 µM
MCF7 [3]
  IC50: 7.56 µM

## N#Cc1c(-c2ccccc2)cn(-c2ccc(S(=O)(=O)Nc3nccs3)cc2)c1N
MCF7 [11]
  viability at 5 µM: 41.5%
HepG2 [1]
  IC50: 5.36 µM
MCF7 [12]
  viability at 40 µM: 85.8%
MCF7 [3]
  IC50: 3.49 µM
MCF7 [13]
  viability at 40 µM: 72%
MCF7 [14]
  viability at 25 µM: 82.3%
MCF7 [15]
  viability at 5 µM: 11.3%
MCF7 [16]
  viability at 12.5 µM: 65.3%
MCF7 [17]
  viability at 12.5 µM: 42.5%
MCF7 [18]
  viability at 25 µM: 71.3%

## N#Cc1c(-c2ccccc2)cn(-c2ccc(S(=O)(=O)Nc3ccccn3)cc2)c1N
HepG2 [1]
  IC50: 5.3 µM
MCF7 [3]
  IC50: 4.6 µM

## O=c1[nH]cnc2c1c(-c1ccccc1)cn2-c1ccc(S(=O)(=O)Nc2nccs2)cc1
HepG2 [1]
  IC50: 5.3 µM
MCF7 [3]
  IC50: 6.21 µM

## O=c1[nH]cnc2c1c(-c1ccccc1)cn2-c1ccc(S(=O)(=O)Nc2ccccn2)cc1
HepG2 [1]
  IC50: 4.67 µM
MCF7 [3]
  IC50: 5.32 µM

## Nc1ncnc2c1c(-c1ccccc1)cn2-c1ccc(S(=O)(=O)Nc2nccs2)cc1
HepG2 [1]
  IC50: 4.24 µM
MCF7 [3]
  IC50: 6.45 µM

## Nc1ncnc2c1c(-c1ccccc1)cn2-c1ccc(S(=O)(=O)Nc2ccccn2)cc1
HepG2 [1]
  IC50: 4.09 µM
MCF7 [3]
  IC50: 6.34 µM

## N#Cc1c(-c2ccccc2)cn(-c2ccc(S(=O)(=O)Nc3nccs3)cc2)c1NC(N)=O
HepG2 [1]
  IC50: 4.02 µM
MCF7 [3]
  IC50: 8.05 µM

## N#Cc1c(-c2ccccc2)cn(-c2ccc(S(=O)(=O)Nc3ccccn3)cc2)c1NC(N)=O
HepG2 [1]
  IC50: 4.12 µM
MCF7 [3]
  IC50: 7.34 µM

## CC(=O)Nc1c(C#N)c(-c2ccccc2)cn1-c1ccc(S(=O)(=O)Nc2nccs2)cc1
HepG2 [1]
  IC50: 4.02 µM
MCF7 [3]
  IC50: 7.24 µM

## CC(=O)Nc1c(C#N)c(-c2ccccc2)cn1-c1ccc(S(=O)(=O)Nc2ccccn2)cc1
HepG2 [1]
  IC50: 3.49 µM
HepG2 [2]
  viability at 5 µM: 30.3%
MCF7 [3]
  IC50: 11.8 µM
HepG2 [4]
  viability at 12.5 µM: 69.5%
HepG2 [5]
  viability at 5 µM: 57.4%
HepG2 [6]
  viability at 40 µM: 69.9%
HepG2 [7]
  viability at 25 µM: 82.5%
HepG2 [8]
  viability at 12.5 µM: 53.5%
HepG2 [9]
  viability at 25 µM: 62.7%
HepG2 [10]
  viability at 40 µM: 82.5%

## N#Cc1c(-c2ccccc2)cn(-c2ccc(S(=O)(=O)Nc3nccs3)cc2)c1NC(=O)CCC(=O)O
HepG2 [1]
  IC50: 3.75 µM
HepG2 [2]
  viability at 5 µM: 25%
MCF7 [3]
  IC50: 9.12 µM
HepG2 [4]
  viability at 12.5 µM: 72.6%
HepG2 [5]
  viability at 5 µM: 60.6%
HepG2 [6]
  viability at 40 µM: 49.6%
HepG2 [7]
  viability at 25 µM: 71.8%
HepG2 [8]
  viability at 12.5 µM: 39.6%
HepG2 [9]
  viability at 25 µM: 36%
HepG2 [10]
  viability at 40 µM: 79.4%

## N#Cc1c(-c2ccccc2)cn(-c2ccc(S(=O)(=O)Nc3ccccn3)cc2)c1NC(=O)CCC(=O)O
HepG2 [1]
  IC50: 3.75 µM
HepG2 [2]
  viability at 5 µM: 15.1%
HepG2 [19]
  viability at 5 µM: 81.4%
HepG2 [20]
  viability at 40 µM: 87.7%
MCF7 [3]
  IC50: 8.32 µM
HepG2 [21]
  viability at 12.5 µM: 84.4%
HepG2 [6]
  viability at 40 µM: 78%
HepG2 [8]
  viability at 12.5 µM: 60.3%
HepG2 [22]
  viability at 25 µM: 89.2%
HepG2 [9]
  viability at 25 µM: 72%

## N#Cc1c(-c2ccccc2)cn(-c2ccc(S(=O)(=O)Nc3nccs3)cc2)c1N1C(=O)CCC1=O
HepG2 [1]
  IC50: 4.56 µM
MCF7 [3]
  IC50: 6.71 µM

## N#Cc1c(-c2ccccc2)cn(-c2ccc(S(=O)(=O)Nc3ccccn3)cc2)c1N1C(=O)CCC1=O
HepG2 [1]
  IC50: 5.36 µM
MCF7 [3]
  IC50: 9.93 µM

## Cc1nc2c(c(-c3ccccc3)cn2-c2ccc(S(=O)(=O)Nc3nccs3)cc2)c(=O)[nH]1
HepG2 [1]
  IC50: 3.39 µM
MCF7 [3]
  IC50: 5.8 µM

## COc1cccc2c1C(=O)c1c(O)c3c(c(O)c1C2=O)C[C@@](O)(C(=O)CO)C[C@@H]3O[C@H]1C[C@H](N)[C@H](O)[C@H](C)O1 [DOXORUBICIN]
HepG2 [1]
  IC50: 5.23 µM
